Test results as given in the supplement of paper PMC10307832.

Experiments:
Assay in all cases: relative viability (nuclei count vs DMSO), 5 days (fraction); higher = more cells survive
AT9283 + Dasatinib = compound: O=C(Nc1c[nH]nc1-c1nc2ccc(CN3CCOCC3)cc2[nH]1)NC1CC1 [AT9283] + Cc1nc(Nc2ncc(C(=O)Nc3c(C)cccc3Cl)s2)cc(N2CCN(CCO)CC2)n1 [Dasatinib] (partner 0.075 µM)
In short: (§1)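 For relative viability, nuclei counts in treated wells were divided by those in vehicle wells. Lung cancer cell lines had been pin-tool dosed in 1536-well plates the day after seeding and cultured for 5 days, then fixed and stained in one step (final 0.05% Triton X-100, 1% formaldehyde, 1 ug/ml Hoechst) and imaged at 4×. Doses were one drug alone or a fixed anchor-drug dose plus five library-drug doses (not always all listed) in √10 steps, and values are duplicate-plate medians.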

Erlotinib + Bortezomib = compound: C#Cc1cccc(Nc2ncnc3cc(OCCOC)c(OCCOC)cc23)c1 [Erlotinib] + CC(C)C[C@H](NC(=O)[C@H](Cc1ccccc1)NC(=O)c1cnccn1)B(O)O [Bortezomib] (partner 0.002 µM)
In short: as §1

AT9283 + OSI-027 = compound: O=C(Nc1c[nH]nc1-c1nc2ccc(CN3CCOCC3)cc2[nH]1)NC1CC1 [AT9283] + COc1cccc2cc(-c3nc([C@H]4CC[C@H](C(=O)O)CC4)n4ncnc(N)c34)[nH]c12 [OSI-027] (partner 0.5 µM)
In short: as §1

Erlotinib + Crizotinib = compound: C#Cc1cccc(Nc2ncnc3cc(OCCOC)c(OCCOC)cc23)c1 [Erlotinib] + C[C@@H](Oc1cc(-c2cnn(C3CCNCC3)c2)cnc1N)c1c(Cl)ccc(F)c1Cl [Crizotinib] (partner 1 µM)
In short: as §1

Erlotinib + Decitabine = compound: C#Cc1cccc(Nc2ncnc3cc(OCCOC)c(OCCOC)cc23)c1 [Erlotinib] + Nc1ncn([C@H]2C[C@H](O)[C@@H](CO)O2)c(=O)n1 [Decitabine] (partner 2 µM)
In short: as §1

Row | Cell Line | relative viability (AT9283 + Dasatinib; first compound 0.003 µM) | relative viability (AT9283 + Dasatinib; first compound 0.03 µM) | relative viability (AT9283 + Dasatinib; first compound 0.09487 µM) | relative viability (AT9283 + Dasatinib; first compound 0.3 µM) | relative viability (Erlotinib + Bortezomib; first compound 0.02 µM) | relative viability (Erlotinib + Bortezomib; first compound 0.2 µM) | relative viability (Erlotinib + Bortezomib; first compound 0.6325 µM) | relative viability (Erlotinib + Bortezomib; first compound 2 µM) | relative viability (AT9283 + OSI-027; first compound 0.003 µM) | relative viability (AT9283 + OSI-027; first compound 0.03 µM) | relative viability (AT9283 + OSI-027; first compound 0.09487 µM) | relative viability (AT9283 + OSI-027; first compound 0.3 µM) | relative viability (Erlotinib + Crizotinib; first compound 0.02 µM) | relative viability (Erlotinib + Crizotinib; first compound 0.2 µM) | relative viability (Erlotinib + Crizotinib; first compound 0.6325 µM) | relative viability (Erlotinib + Crizotinib; first compound 2 µM) | relative viability (Erlotinib + Decitabine; first compound 0.02 µM) | relative viability (Erlotinib + Decitabine; first compound 0.2 µM) | relative viability (Erlotinib + Decitabine; first compound 0.6325 µM) | relative viability (Erlotinib + Decitabine; first compound 2 µM)
1 | 201T | 0.456 | 0.592 | 0.323 | 0.292 | 1.12 | 1.06 | 1.12 | 1.02 | 0.663 | 0.776 | 0.188 | 0.206 | 1 | 0.943 | 0.905 | 0.951 | 0.851 | 0.793 | 0.824 | 0.8
2 | A549 | – | – | – | – | – | – | – | – | – | – | – | – | 0.799 | 0.796 | 0.792 | 0.551 | 0.263 | 0.294 | 0.266 | 0.262
3 | CAL-12T | 0.495 | 0.204 | 0.124 | 0.12 | 0.879 | 0.73 | 0.713 | 0.487 | 0.718 | 0.599 | 0.216 | 0.17 | 0.964 | 0.636 | 0.356 | 0.249 | – | – | – | –
4 | Calu-6 | – | – | – | – | 0.992 | 1.02 | 1.04 | 0.933 | – | – | – | – | 0.931 | 0.719 | 0.853 | 0.714 | – | – | – | –
5 | EBC-1 | – | – | – | – | 0.609 | 0.588 | 0.477 | 0.587 | – | – | – | – | 0.206 | 0.189 | 0.169 | 0.164 | – | – | – | –
6 | HCC-44 | – | – | – | – | 0.99 | – | 0.982 | 0.899 | 0.466 | 0.555 | 0.185 | 0.21 | 0.797 | 0.895 | 0.843 | 0.798 | 1 | 0.972 | – | 1
7 | IA-LM | – | – | – | – | 0.833 | – | 0.977 | 0.86 | – | – | – | – | 0.808 | 1 | 0.93 | 0.85 | – | – | – | –
8 | LK-2 | 0.228 | 0.197 | 0.135 | 0.142 | – | – | – | – | 0.2 | 0.151 | 0.156 | 0.143 | 0.217 | 0.228 | 0.198 | 0.227 | 0.294 | 0.291 | 0.346 | 0.262
9 | NCI-H358 | 0.147 | 0.1 | 0.0732 | 0.0691 | – | – | – | – | 0.899 | 0.186 | 0.0868 | 0.0708 | 0.549 | 0.524 | 0.379 | 0.24 | 0.216 | 0.183 | 0.179 | 0.167
10 | NCI-H522 | 0.66 | 0.678 | 0.583 | 0.476 | – | – | – | – | 0.665 | 0.57 | 0.549 | 0.567 | – | – | – | – | 0.661 | 0.751 | 0.659 | 0.589
11 | NCI-H1299 | – | – | – | – | 1.11 | 1.05 | 0.997 | 1 | – | – | – | – | 0.989 | – | 0.988 | 0.965 | – | – | – | –
12 | NCI-H1395 | 0.434 | 0.424 | 0.292 | 0.287 | – | – | – | – | 0.523 | 0.541 | 0.356 | 0.363 | – | – | – | – | 0.816 | 0.726 | 0.807 | 0.678
13 | NCI-H1563 | 0.444 | 0.444 | 0.42 | 0.327 | 0.905 | 0.787 | 0.75 | 0.754 | 0.769 | 0.748 | 0.645 | 0.525 | 0.85 | 0.845 | 0.802 | 0.804 | – | – | – | –
14 | NCI-H1623 | 0.567 | 0.51 | 0.615 | 0.324 | – | – | – | – | 0.438 | 0.448 | 0.358 | 0.381 | – | – | – | – | – | – | – | –
15 | NCI-H1648 | – | – | – | – | – | – | – | – | 0.277 | 0.259 | 0.283 | 0.246 | – | – | – | – | 0.433 | 0.512 | 0.491 | 0.39
16 | NCI-H1703 | – | – | – | – | 0.296 | 0.346 | 0.409 | 0.238 | – | – | – | – | 0.592 | – | – | 0.569 | – | – | – | –
17 | NCI-H1793 | 0.405 | 0.39 | 0.256 | 0.138 | – | – | – | – | 0.278 | 0.367 | 0.188 | 0.206 | – | – | – | – | 0.492 | 0.443 | 0.328 | 0.343
18 | NCI-H1944 | 0.199 | 0.178 | 0.116 | 0.111 | – | – | – | – | 0.391 | 0.291 | 0.201 | 0.229 | 0.964 | 0.701 | 0.844 | 0.626 | 0.43 | 0.382 | 0.37 | 0.372
19 | NCI-H2170 | 0.446 | 0.427 | 0.16 | 0.133 | – | – | – | – | 0.663 | 0.607 | 0.298 | 0.172 | 1.17 | 1.06 | 1.1 | 0.569 | 0.542 | 0.492 | 0.505 | 0.419
20 | NCI-H2228 | 0.491 | 0.503 | 0.307 | 0.0747 | 1.06 | 1.03 | 1.02 | 0.8 | 0.585 | 0.648 | 0.355 | 0.126 | 0.516 | 0.476 | 0.379 | 0.32 | – | – | – | –
21 | NCI-H2342 | 0.295 | 0.292 | 0.289 | 0.27 | – | – | – | – | 0.605 | 0.576 | 0.508 | 0.413 | – | – | – | – | 0.78 | – | 0.701 | 0.683
22 | SK-MES-1 | 0.56 | 0.25 | 0.0729 | 0.0952 | – | – | – | – | 0.74 | 0.619 | 0.215 | 0.197 | 1.06 | 0.725 | 0.524 | 0.38 | 0.393 | 0.345 | 0.31 | 0.27
23 | SW 900 | 0.652 | 0.533 | 0.438 | 0.385 | – | – | – | – | 0.718 | 0.703 | 0.388 | 0.229 | – | – | – | – | 0.392 | 0.526 | 0.429 | 0.374
